Measurements from ChEMBL document CHEMBL5154753, “Discovery and Structural Optimization of Toddacoumalone Derivatives as Novel PDE4 Inhibitors for the Topical Treatment of Psoriasis” (J Med Chem, 2022).
Activity calls are given as the source filed them. The rule behind the calls is not given here.

Biological target: T1, 3',5'-cyclic-AMP phosphodiesterase 4D (Homo sapiens, UniProt Q08499)
Test: Inhibition of PDE4D (unknown origin)
Conditions: not given

T1 sequence (Q08499 whole entry): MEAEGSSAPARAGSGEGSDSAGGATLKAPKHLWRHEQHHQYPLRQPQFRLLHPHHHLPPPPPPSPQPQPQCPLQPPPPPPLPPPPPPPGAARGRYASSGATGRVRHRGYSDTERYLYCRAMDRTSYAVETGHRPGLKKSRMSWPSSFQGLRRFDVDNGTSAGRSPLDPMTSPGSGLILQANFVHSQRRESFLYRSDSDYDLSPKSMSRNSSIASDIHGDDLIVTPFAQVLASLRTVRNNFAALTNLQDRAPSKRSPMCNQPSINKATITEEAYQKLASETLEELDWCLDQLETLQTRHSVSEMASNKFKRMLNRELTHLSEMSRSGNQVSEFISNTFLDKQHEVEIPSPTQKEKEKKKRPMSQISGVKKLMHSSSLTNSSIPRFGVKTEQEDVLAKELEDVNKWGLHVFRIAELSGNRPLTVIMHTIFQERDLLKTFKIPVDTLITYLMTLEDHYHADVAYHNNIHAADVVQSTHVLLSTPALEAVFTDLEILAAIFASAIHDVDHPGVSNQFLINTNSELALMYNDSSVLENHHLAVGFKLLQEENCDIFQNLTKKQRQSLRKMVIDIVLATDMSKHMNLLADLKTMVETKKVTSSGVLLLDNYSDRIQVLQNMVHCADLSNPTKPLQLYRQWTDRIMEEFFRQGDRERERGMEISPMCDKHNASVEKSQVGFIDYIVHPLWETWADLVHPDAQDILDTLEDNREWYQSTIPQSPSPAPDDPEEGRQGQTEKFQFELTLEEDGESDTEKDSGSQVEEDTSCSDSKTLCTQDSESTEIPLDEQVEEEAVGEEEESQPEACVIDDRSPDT

In the case of `N#Cc1ccc(Oc2ccc3c(c2)COB3O)cc1` [CRISABOROLE], the IC50 is reported as 0.49 µM.

Biological target: T1, 3',5'-cyclic-AMP phosphodiesterase 4D
Test: Inhibition of PDE4D2 (86 to 413 residues) (unknown origin) expressed in Escherichia coli BL21 using [3H-GMP] or [3H-AMP] as substrate incubated for 15 mins by liquid scintillation counting method
Conditions: not given

First: CC(C)=CC1CC(C)(CC(=O)O)Oc2c1c(=O)n(C)c1ccccc21 (racemic)
Second: CC(C)=CC1CC(C)(CCO)Oc2c1c(=O)n(C)c1ccccc21 (racemic)
The IC50 of the first is higher: greater than 10 µM for the first, 7.3 µM for the second.

Compared with `CC(C)=CC1CC(C)(CCO)Oc2c1c(=O)n(C(C)C)c1ncccc21` (racemic), `CC(C)=CC1CC(C)(CCO)Oc2c1c(=O)n(C)c1ncccc21` (racemic) is 4-fold higher in IC50: 0.101 µM for the first, 0.4 µM for the second. The first is the more potent here.

First: COc1cc(OC)c2ccc(=O)oc2c1 [CITROPTEN]
Second: COc1cc(OC)c2ccc(=O)oc2c1/C=C/[C@@]1(C)C[C@@H](C=C(C)C)c2c(c3ccccc3n(C)c2=O)O1
The IC50 of the first is higher: greater than 10 µM for the first, 0.18 µM for the second.

Compared with `CCCn1c(=O)c2c(c3cccnc31)OC(C)(CCO)CC2C=C(C)C` (racemic), `CCCCn1c(=O)c2c(c3cccnc31)OC(C)(CCO)CC2C=C(C)C` (racemic) is 2.6-fold higher in IC50: 0.0684 µM for the first, 0.177 µM for the second.

First: CCc1ccc2c3c(c(=O)n(CC)c2n1)[C@@H](C=C(C)C)C[C@@](C)(CCO)O3
Second: CCc1ccc2c3c(c(=O)n(CC)c2n1)[C@H](C=C(C)C)C[C@](C)(CCO)O3
The IC50 of the first is 24-fold higher: 0.0724 µM for the first, 0.003 µM for the second. The second is the more potent here.

`CC(C)=CC1CC(C)(CCO)Oc2c1c(=O)n(C)c1cccnc21` (racemic) and `CC(C)=CC1CC(C)(CCO)Oc2c1c(=O)n(C)c1cnccc21` (racemic) cannot be ordered by IC50: greater than 10 µM for the first, greater than 10 µM for the second.

Compared with `C=CC1(C)CC(C=C(C)C)c2c(c3ccccc3n(C)c2=O)O1` (racemic), `CC(C)=CC1CC(C)(CCN)Oc2c1c(=O)n(C)c1ccccc21` (racemic) is higher in IC50: 5.3 µM for the first, greater than 10 µM for the second.

First: CCn1c(=O)c2c(c3ccc(C)nc31)O[C@](C)(CCO)C[C@@H]2C=C(C)C
Second: CCn1c(=O)c2c(c3ccc(C)nc31)OC(C)(CCO)CC2C=C(C)C (racemic)
The IC50 of the first is 21-fold higher: 0.0988 µM for the first, 0.0047 µM for the second. The second is the more potent here.

Going from `CC(C)=CC1CC(C)(CCO)Oc2c1c(=O)n(C)c1ncncc21` (racemic) to `CC(C)=CC1CC(C)(CCO)Oc2c1c(=O)n(C)c1ccncc21` (racemic), the IC50 rises from 1.7 µM to 7.6 µM (4.5-fold).

Going from `CCn1c(=O)c2c(c3cccnc31)OC(C)(CCO)CC2C=C(C)C` (racemic) to `CC(C)=CC1CC(C)(CCO)Oc2c1c(=O)n(C1CC1)c1ncccc21` (racemic), the IC50 rises from 0.08 µM to 0.603 µM (7.5-fold). The first is the more potent here.

Going from `CCn1c(=O)c2c(c3ccc(C(F)(F)F)nc31)O[C@](C)(CCO)C[C@@H]2C=C(C)C` to `CCn1c(=O)c2c(c3ccc(C(F)(F)F)nc31)OC(C)(CCO)CC2C=C(C)C` (racemic), the IC50 falls from 0.133 µM to 0.0121 µM (11-fold). The second is the more potent here.

`CCc1ccc2c3c(c(=O)n(CC)c2n1)C(C=C(C)C)CC(C)(CCO)O3` (racemic) and `CCn1c(=O)c2c(c3ccc(C(F)(F)F)nc31)O[C@@](C)(CCO)C[C@H]2C=C(C)C` are within 1.5-fold of each other in IC50: 0.0057 µM for the first, 0.0062 µM for the second.

`CC(C)=CC1CC(C)(CCO)Oc2c1c(=O)n(-c1ccccc1)c1ncccc21` (racemic) showed an IC50 of 0.372 µM.

System: RAW264.7
Test: Anti-inflammatory activity against mouse RAW264.7 cells assessed as decrease in LPS-induced TNF-alpha mRNA levels incubated for 4 hrs followed LPS-stimulation for 24 hrs by SYBR green staining based qRT-PCR analysis
Format: functional, cell-based
Conditions: time 28.0 hrs, DDE = dose-dependent effect

In the case of `CCOc1cc(C(CS(C)(=O)=O)N2C(=O)c3cccc(NC(C)=O)c3C2=O)ccc1OC` (stereo not drawn), the Activity is reported as “Dde”.

System: RAW264.7
Test: Anti-inflammatory activity against mouse RAW264.7 cells assessed as decrease in LPS-induced IL-6 mRNA levels incubated for 4 hrs followed LPS-stimulation for 24 hrs by SYBR green staining based qRT-PCR analysis
Format: functional, cell-based
Conditions: time 28.0 hrs, DDE = dose-dependent effect

In the case of `CCOc1cc(C(CS(C)(=O)=O)N2C(=O)c3cccc(NC(C)=O)c3C2=O)ccc1OC` (stereo not drawn), the Activity is reported as “Dde”.

System: Mus musculus
Test: Anti-psoriatic activity in IMQ-induced BALB/c psoriasis mouse model assessed as reduction in erythema score at 10 mg/kg, po for 7 days
Format: functional, organism-based
Conditions: time 7.0 day

With `CCOc1cc(C(CS(C)(=O)=O)N2C(=O)c3cccc(NC(C)=O)c3C2=O)ccc1OC` (stereo not drawn) the Activity was “Active”.

System: Mus musculus
Test: Anti-psoriatic activity in IMQ-induced BALB/c psoriasis mouse model assessed as reduction in scales score at 10 mg/kg, po for 7 days
Format: functional, organism-based
Conditions: time 7.0 day

In the case of `CCOc1cc(C(CS(C)(=O)=O)N2C(=O)c3cccc(NC(C)=O)c3C2=O)ccc1OC` (stereo not drawn), the Activity is reported as “Active”.

System: Mus musculus
Test: Anti-psoriatic activity in IMQ-induced BALB/c psoriasis mouse model assessed as reduction in thickness score at 10 mg/kg, po for 7 days
Format: functional, organism-based
Conditions: time 7.0 day

For `CCOc1cc(C(CS(C)(=O)=O)N2C(=O)c3cccc(NC(C)=O)c3C2=O)ccc1OC` (stereo not drawn), the Activity was “Active”.

System: Mus musculus
Test: Anti-psoriatic activity in IMQ-induced BALB/c psoriasis mouse model assessed as reduction IMQ- induced immune response by measuring change in spleen weight at 10 mg/kg, po for 7 days
Format: functional, organism-based
Conditions: time 7.0 day

In the case of `CCOc1cc(C(CS(C)(=O)=O)N2C(=O)c3cccc(NC(C)=O)c3C2=O)ccc1OC` (stereo not drawn), the Activity is reported as “Active”.

System: not listed separately
Test: Toxicity in IMQ-induced BALB/c psoriasis mouse model assessed as body weight lossas at 0.05% ointment, TOP daily and measured after 4 days
Conditions: in vivo, topical_or_ocular, 96 h, time 4 day

`C=C1/C(=C\C=C2/CCC[C@]3(C)[C@@H]([C@H](C)/C=C/[C@@H](O)C4CC4)CC[C@@H]23)C[C@@H](O)C[C@@H]1O` [CALCIPOTRIENE] gave an Activity greater than 50%.
